The values below are quoted from earlier work in patent US7314719B2, “Method for increasing productivity of secondary metabolite by conferring drug-resistant mutations” (priority 2001, dated 2008).

The conditions of this series: cited from earlier work.

Like-named read-outs stand apart in the source and are kept apart here.

Turning to `C[C@H]1O[C@H](CC(=O)O)Cc2c1c(O)c1c(O)c(-c3cc(=O)c4c(=O)c5c(c(=O)c=4c3=O)[C@@H](C)O[C@H](CC(=O)O)C5)cc(O)c1c2O` [actinorhodin], the Solubility result is, setting by setting: (in alcohol, acetic acid, acetone) “slightly soluble”; (in aq acid) “Practically insol”; (in aq alkali (bright blue color)) “sol”; (in piperidine, tetrahydrofuran, dioxane, phenol) “Soluble”.
